Source: US10973815B2, “Delta opioid agonist mu opioid antagonist compositions and methods for treating Parkinsons disease” (priority 2016, dated 2021)

Assays:
[1] = tested on: MPTP-lesioned cynomolgus macaques; assay: Acute DPI-289 in combination with low-dose L-DOPA, versus high-dose L-DOPA, in MPTP-lesioned macaques with L-DOPA-induced dyskinesia; assay type: in vivo, Macaca fascicularis; conditions: high dose L-DOPA alone (about 30 to 31 mg/kg)
Text: This study utilized female MPTP-lesioned cynomolgus macaques that have received chronic repeat-treatment with L-DOPA and manifested stable and reproducible dyskinesia, of choreic and dystonic nature, in response to subsequent L-DOPA-treatments. Eight cynomolgus monkeys (Macaca fascicularis, 7.6-13.1 years of age, 3.0-4.5 kg) were used in this study. In a prior experiment, for each individual animal a low and high dose of L-DOPA was established such that the low dose (LD1) provided modest anti-parkinsonian action (1-2 h) and elicited predominantly non-disabling dyskinesia, the high dose (LDh) provided the best anti-parkinsonian effect achievable but also elicited disabling dyskinesia and an anti-parkinsonian benefit of 2-3 h duration
The behavioral effects of acute DPI-289 administered in combination with low-dose L-DOPA (LD1) were assessed. Also higher dose of L-DOPA was also assessed without the addition of DPI-289. The low dose (LD1) was about 10 to 11 mg/kg of L-DOPA which is considered to be sub-optimal in terms of anti-parkinsonian benefit. The dose of DPI-289 was 20 mg/kg and the high dose of L-DOPA was about 30 to 31 mg/kg and considered to an optimal does in terms of anti-parkinsonian benefit but with disabling dyskinesia. The DPI-289 was administered one (1) hour prior to the L-DOPA and start of observation. Activity counts were collected and parkinsonian disability and dyskinesia was assessed via post-hoc analysis of video-recordings by a movement disorder neurologist blinded to treatment.
On the day before behavioral observations, food was removed overnight, from 5 p.m. On days of behavioral assessment, treatment was administered to the animals in their home cage at approximately 9 a.m. A 6 h period of observation then commenced 1 h after oral dosing.
The animals were rendered parkinsonian by once daily subcutaneous injection of 0.2 mg/kg MPTP, administered for 8-12 days, until the first appearance of parkinsonism symptoms. After this time, a parkinsonian syndrome reached a moderate to marked level, over approximately 30 days, and stabilized. Additional administrations of MPTP were given to some animals to titrate to similar degrees of parkinsonism in individuals across the group. […] Sixty days after commencing MPTP administration, L-DOPA (25 mg/kg) was administered orally twice daily for at least two months. L-DOPA was given with the decarboxylase inhibitor benserazide (as Madopar™). This treatment leads to the development of motor fluctuations, including dyskinesia.

[2] = tested on: unilateral 6-OHDA-lesioned Rats; assay: Postural asymmetry and dyskinesia (AIMs) on repeated dosing in unilateral 6-OHDA-lesioned rats; assay type: in vivo, rat; conditions: 6 mg/kg i.p. daily for 15 days
mice = conditions: cited from earlier work
rats = conditions: cited from earlier work
MPTP-treated marmosets = conditions: similar dose levels (10 mg/kg); cited from earlier work
[3] = tested on: rats treated with reserpine or dopamine receptor antagonists (haloperidol or SCH23390); conditions: 10 mg/kg i.p.; cited from earlier work
[4] = tested on: MPTP-lesioned primate (marmosets) model of Parkinson's disease; conditions: 10 mg/kg i.p.; without attenuation of the anti-parkinsonian actions of L-DOPA; cited from earlier work

N[C@@H](Cc1ccc(O)c(O)c1)C(=O)O [L-DOPA, reference compound]
dyskinesia [1]: severe dyskinesia in the first three hours after dosage | parkinsonian disability [1]: parkinsonian disability increased in the last four to six hours | postural asymmetry [2]: reduced or reversed the postural asymmetry

C=CCN1C[C@H](C)N([C@H](c2ccc(C(=O)N(CC)CC)cc2)c2cccc(OC)c2)C[C@H]1C [SNC80]
convulsions (mice): seizure-like convulsions | convulsions (rats): seizure-like convulsions | motor activity, bradykinesia and disability scores (MPTP-treated marmosets): restored motor activity, bradykinesia and disability scores to normal | parkinsonian posture (MPTP-treated marmosets): not statistically reversed | behavioral deficits (ambulatory behavior, grooming, rearing, social interaction and exploration, static investigation) [3]: restored behavioral deficits

COc1cccc2c1[C@]13CCN(CC4CC4)[C@H](C2)[C@]1(OC)CCC(=O)C3 [cyprodime]
L-DOPA-induced dyskinesia [4]: reduce completely L-DOPA-induced dyskinesia
